The numbers were not newly measured in US6717012B2, “Antioxidant nitroxides and nitrones as therapeutic agents” (priority 2001, dated 2004), which cites them from elsewhere.

The subject of data set [1] is rats with an experimental painful peripheral neuropathy.
The target in data set [2] is NMDA receptor (Homo sapiens, UniProt Q05586).
Data set [3] deals with cortical and retinal neuron cultures.
The test system of data set [4] is quinolic acid-induced hippocampal damage. As to conditions: rats.
Data set [5] addresses NMDA channel ([3H]dizocilpine binding to brain membranes) (Homo sapiens, UniProt Q05586).
Data set [6] has as its system nicotinic acetylcholine receptors.
The target in data set [7] is T1, 5-hydroxytryptamine 5-HT3 receptors (Homo sapiens, UniProt P46098).
T1 sequence (P46098 24-478): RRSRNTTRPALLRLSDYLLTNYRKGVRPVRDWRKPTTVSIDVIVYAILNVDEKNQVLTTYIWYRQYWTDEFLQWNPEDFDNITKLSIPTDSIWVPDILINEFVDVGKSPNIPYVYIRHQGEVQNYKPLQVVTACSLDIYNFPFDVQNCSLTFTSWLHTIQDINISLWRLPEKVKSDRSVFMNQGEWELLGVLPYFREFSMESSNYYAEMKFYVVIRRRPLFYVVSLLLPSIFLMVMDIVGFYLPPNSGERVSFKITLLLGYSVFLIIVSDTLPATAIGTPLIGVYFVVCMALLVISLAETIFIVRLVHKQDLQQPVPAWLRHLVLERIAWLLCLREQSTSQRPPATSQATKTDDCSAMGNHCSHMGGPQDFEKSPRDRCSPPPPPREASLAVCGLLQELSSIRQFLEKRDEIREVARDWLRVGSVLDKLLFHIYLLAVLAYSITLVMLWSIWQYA

Data set [8] deals with PCP and MK-801 binding sites of the NMDA receptor (Homo sapiens, UniProt Q05586). As to conditions: postmortem human frontal cortex, at therapeutic concentrations.

Turning to `CC1(C)CC(O)CC(C)(C)N1[O]` [4-hydroxy-2,2,6,6-tetramethylpiperidine-1-oxyl], in data set [1], the “effect on heat hyperalgesia” value was “alleviated heat hyperalgesia”.
Consider `CC12CC3CC(C)(C1)CC(N)(C3)C2` [Memantine, 1-amino-3,5-dimethyladamantane], for which, in data set [2], the “antagonist potency at the NMDA receptor” value was “micromolar antagonist”. The “protection from toxicity of glutamate, NMDA and HIV-1 coat protein gp120” value in data set [3] is on record as “protects”. Further, the “prevention of quinolic acid-induced hippocampal damage” value in data set [4] is recorded as “prevents”. For the same compound, in data set [5], the “inhibition of [3H]dizocilpine binding” value is recorded as “inhibits”. The “block of nicotinic acetylcholine receptors” value in data set [6] is listed as “blocks”. Also, the “block of 5-HT3 receptors” value in data set [7] is “blocks”. Besides, the “binding to PCP and MK-801 binding sites” value in data set [8] is listed as “binds”.
